Results on 29 compounds are retold here after patent publication US9006228B2 (Merck Sharp & Dohme Corp., priority 2011, dated 2015).

In this experiment the target is T1, human GPR119 (Homo sapiens, UniProt Q8TDV5).
T1 sequence (Q8TDV5 1-308 limits assumed): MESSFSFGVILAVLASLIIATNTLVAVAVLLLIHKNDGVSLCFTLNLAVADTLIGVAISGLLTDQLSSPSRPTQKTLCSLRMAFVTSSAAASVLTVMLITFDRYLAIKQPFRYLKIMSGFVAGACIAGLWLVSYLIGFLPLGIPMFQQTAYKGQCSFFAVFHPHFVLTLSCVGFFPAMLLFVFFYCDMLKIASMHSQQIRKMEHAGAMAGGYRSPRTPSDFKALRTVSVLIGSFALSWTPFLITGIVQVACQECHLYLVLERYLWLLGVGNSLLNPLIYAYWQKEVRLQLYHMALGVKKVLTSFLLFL
The experiment can be described thus: Measurement of GPR119 signaling (cAMP assay; LANCE kit or HTRF) in HEK293 cells stably transfected with human GPR119. It is filed as cell-based. To be noted: agonist-stimulated cAMP in HEK293 cells expressing human GPR119. The method in brief: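 LANCE method: cAMP detected with Eu-chelate/biotin-cAMP tracer, 3 h, read at 665 nm, converted via cAMP standards; basal from DMSO, maximum from internal agonist, 4-parameter fit.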
Background: Changes in cAMP serve as a functional read-out for many G protein-coupled receptors.
What is called EC50 is the concentration at which the effect is half-maximal. A low value points to greater potency. With `CCc1cnc(N2CCC([C@H]3C[C@H]3COCc3ccc(-c4cnc(C)s4)cc3F)CC2)nc1` [Example 111, 5-ethyl-2-{4-[(1R,2R)-2-({[2-fluoro-4-(2-methyl-1,3-thiazol-5-yl)benzyl]oxy}methyl)cyclopropyl]piperidin-1-yl}pyrimidine], the concentration giving a half-maximal response (EC50) is 4 nM.

Consider `CCc1cnc(N2CCC([C@H]3C[C@H]3COCc3ccc(-c4ccncn4)c(F)c3)CC2)nc1` [Example 112, 4-{4-[({(1R,2R)-2-[1-(5-ethylpyrimidin-2-yl)piperidin-4-yl]cyclopropyl}methoxy)methyl]-2-fluorophenyl}pyrimidine], for which the EC50 turned out to be 3 nM.

Compound `CCc1cnc(N2CCC([C@H]3C[C@H]3COCc3ccc(-c4cncnc4)c(F)c3)CC2)nc1` [Example 113, 5-{4-[({(1R,2R)-2-[1-(5-ethylpyrimidin-2-yl)piperidin-4-yl]cyclopropyl}methoxy)methyl]-2-fluorophenyl}pyrimidine] showed an EC50 of 2 nM.

For the compound `CCc1cnc(N2CCC([C@H]3C[C@H]3COCc3ccc(-c4cccnn4)c(F)c3)CC2)nc1` [Example 114, 3-{4-[({(1R,2R)-2-[1-(5-ethylpyrimidin-2-yl)piperidin-4-yl]cyclopropyl}methoxy)methyl]-2-fluorophenyl}pyridazine], the EC50 was determined as 3 nM.

`CCc1cnc(N2CCC([C@H]3C[C@H]3COCc3ccc(-c4ccnnc4)c(F)c3)CC2)nc1` [Example 115, 4-{4-[({(1R,2R)-2-[1-(5-ethylpyrimidin-2-yl)piperidin-4-yl]cyclopropyl}methoxy)methyl]-2-fluorophenyl}pyridazine] displayed an EC50 of 1 nM.

Turning to `CCc1cnc(N2CCC([C@H]3C[C@H]3COCc3ccc(-c4cnc(N)nc4)c(F)c3)CC2)nc1` [Example 118, 5-{4-[({(1R,2R)-2-[1-(5-ethylpyrimidin-2-yl)piperidin-4-yl]cyclopropyl}methoxy)methyl]-2-fluorophenyl}pyrimidin-2-amine], the EC50 was determined as 5.9 nM.

`CCc1cnc(N2CCC([C@H]3C[C@H]3COCc3ccc(-c4cncnc4)cc3)CC2)nc1` [Example 120] had an EC50 of 1.9 nM. Against the preceding compound, the EC50 is about 3.1-fold lower.

`CCc1cnc(N2CCC([C@H]3C[C@H]3COCc3ccc(-c4ccnnc4)cc3)CC2)nc1` [Example 121] returned an EC50 of 1.9 nM. This counts as single-digit nanomolar.

With `CCc1cnc(N2CCC([C@H]3C[C@H]3COCc3ccc(-c4cccnn4)cc3)CC2)nc1` [Example 122], the EC50 came out at 1.1 nM.

For `CCc1cnc(N2CCC([C@H]3C[C@H]3COCc3ccc(-c4cnccn4)cc3)CC2)nc1` [Example 123], the half-maximal effective concentration (EC50) worked out at 9.8 nM.

In turn, `CCS(=O)(=O)c1ccc(COC[C@@H]2C[C@@H]2C2CCN(c3ncc(COC)cn3)CC2)c(F)c1` [Example 127, 2-(4-((1R,2R)-2-(((4-(ethylsulfonyl)-2-fluorobenzyl)oxy)methyl)cyclopropyl)piperidin-1-yl)-5-(methoxymethyl)pyrimidine] gave an EC50 of 2.8 nM.

`COCc1cnc(N2CCC([C@H]3C[C@H]3COCc3cc(F)c(S(C)(=O)=O)c(F)c3)CC2)nc1` [Example 128, 2-(4-((1R,2R)-2-(((3,5-difluoro-4-(methylsulfonyl)benzyl)oxy)methyl)cyclopropyl)piperidin-1-yl)-5-(methoxymethyl)pyrimidine] registered an EC50 of 4.5 nM. This EC50 is about 1.6-fold higher than that of the compound before.

`CCOc1cnc(N2CCC([C@H]3C[C@H]3COCc3ccc(S(C)(=O)=O)c(F)c3)CC2)nc1` [Example 129, 5-ethoxy-2-(4-((1R,2R)-2-(((3-fluoro-4-(methylsulfonyl)benzyl)oxy)methyl)cyclopropyl)piperidin-1-yl)pyrimidine] gave an EC50 of 1.65 nM. Compared with the last compound, the EC50 is about 2.7-fold lower.

`COCc1cnc(N2CCC([C@H]3C[C@H]3COCc3ccc(-n4cnnn4)c(F)c3)CC2)nc1` [Example 132, 2-(4-((1R,2R)-2-((3-fluoro-4-(1H-tetrazol-1-yl)benzyloxy)methyl)cyclopropyl)piperidin-1-yl)-5-(methoxymethyl)pyrimidine]: the EC50 is 1.1 nM.

Take `CCc1cnc(N2CCC([C@H]3C[C@H]3COCc3ccc(-n4cnnn4)cn3)CC2)nc1` [Example 133, 2-(4-((1R,2R)-2-(((5-(1H-tetrazol-1-yl)pyridin-2-yl)methoxy)methyl)cyclopropyl)piperidin-1-yl)-5-ethylpyrimidine]: the EC50 stood at 5.6 nM. Compared with the last compound, the EC50 is about 5.1-fold higher.

Consider `CC(C)c1noc(N2CCC([C@H]3C[C@H]3COCc3ccc(-n4cnnn4)cc3F)CC2)n1` [Example 134, 5-(4-((1R,2R)-2-((2-fluoro-4-(1H-tetrazol-1-yl)benzyloxy)methyl)cyclopropyl)piperidin-1-yl)-3-isopropyl-1,2,4-oxadiazole], for which the EC50 worked out at 1.7 nM.

Compound `COCc1noc(N2CCC([C@H]3C[C@H]3COCc3ccc(-n4cnnn4)cc3F)CC2)n1` [Example 135, 5-(4-((1R,2R)-2-((2-fluoro-4-(1H-tetrazol-1-yl)benzyloxy)methyl)cyclopropyl)piperidin-1-yl)-3-(methoxymethyl)-1,2,4-oxadiazole] returned an EC50 of 9.8 nM.

Compound `CC1(OC(=O)N2CCC([C@H]3C[C@H]3COCc3ccc(-n4cnnn4)cc3F)CC2)CC1` [Example 136, 1-methylcyclopropyl 4-((1R,2R)-2-((2-fluoro-4-(1H-tetrazol-1-yl)benzyloxy)methyl)cyclopropyl)piperidine-1-carboxylate] displayed an EC50 of 4.8 nM. This EC50 lies about 2-fold lower than the previous one.

The compound `CC(C)c1noc(N2CCC([C@H]3C[C@H]3COCc3ccc(CC(=O)N(C)C)cc3F)CC2)n1` [Example 137, 2-(3-fluoro-4-((((1R,2R)-2-(1-(3-isopropyl-1,2,4-oxadiazol-5-yl)piperidin-4-yl)cyclopropyl)methoxy)methyl)phenyl)-N,N-dimethylacetamide] showed an EC50 of 1.6 nM. Compared with the last compound, the EC50 is about 3-fold lower.

Regarding `COC1CN(C(=O)Cc2ccc(COC[C@@H]3C[C@@H]3C3CCN(c4nc(C(C)C)no4)CC3)c(F)c2)C1` [Example 138, 2-(3-fluoro-4-((((1R,2R)-2-(1-(3-isopropyl-1,2,4-oxadiazol-5-yl)piperidin-4-yl)cyclopropyl)methoxy)methyl)phenyl)-1-(3-methoxyazetidin-1-yl)ethanone], a half-maximal effect (EC50) was put at 2.2 nM.

As for `CC(C)c1noc(N2CCC([C@H]3C[C@H]3COCc3ccc(CC(=O)N4CC(F)C4)cc3F)CC2)n1` [Example 139, 2-(3-fluoro-4-((((1R,2R)-2-(1-(3-isopropyl-1,2,4-oxadiazol-5-yl)piperidin-4-yl)cyclopropyl)methoxy)methyl)phenyl)-1-(3-fluoroazetidin-1-yl)ethanone], the response was half-maximal at 0.89 nM (EC50).

`CC(C)c1noc(N2CCC([C@H]3C[C@H]3COCc3ccc(CC(=O)N(C)C)c(F)c3)CC2)n1` [Example 140, 2-(2-fluoro-4-((((1R,2R)-2-(1-(3-isopropyl-1,2,4-oxadiazol-5-yl)piperidin-4-yl)cyclopropyl)methoxy)methyl)phenyl)-N,N-dimethylacetamide]: the EC50 came to 0.66 nM.

For `CC(C)c1noc(N2CCC([C@H]3C[C@H]3COCc3ccc(CC(=O)N4CCOCC4)c(F)c3)CC2)n1` [Example 141, 2-(2-fluoro-4-((((1R,2R)-2-(1-(3-isopropyl-1,2,4-oxadiazol-5-yl)piperidin-4-yl)cyclopropyl)methoxy)methyl)phenyl)-1-morpholinoethanone], a half-maximal effect (EC50) was put at 1.2 nM. Compared with the last compound, the EC50 is about 1.8-fold higher.

For `COC1CN(C(=O)Cc2ccc(COC[C@@H]3C[C@@H]3C3CCN(c4nc(C(C)C)no4)CC3)cc2F)C1` [Example 142, 2-(2-fluoro-4-((((1R,2R)-2-(1-(3-isopropyl-1,2,4-oxadiazol-5-yl)piperidin-4-yl)cyclopropyl)methoxy)methyl)phenyl)-1-(3-methoxyazetidin-1-yl)ethanone], a half-maximal response (EC50) required 0.95 nM.

In turn, `CC(C)c1noc(N2CCC([C@H]3C[C@H]3COCc3ccc(CC(=O)N4CC(O)C4)c(F)c3)CC2)n1` [Example 143, 2-(2-fluoro-4-((((1R,2R)-2-(1-(3-isopropyl-1,2,4-oxadiazol-5-yl)piperidin-4-yl)cyclopropyl)methoxy)methyl)phenyl)-1-(3-hydroxyazetidin-1-yl)ethanone] had an EC50 of 6.3 nM.

As to `COCc1noc(N2CCC([C@H]3C[C@H]3COCc3ccc(CC(=O)N4CCC4)c(F)c3)CC2)n1` [Example 144, 1-(azetidin-1-yl)-2-(2-fluoro-4-((((1R,2R)-2-(1-(3-(methoxymethyl)-1,2,4-oxadiazol-5-yl)piperidin-4-yl)cyclopropyl)methoxy)methyl)phenyl)ethanone], the half-maximal effective concentration (EC50) is 11.4 nM.

Compound `COCc1cnc(N2CCC([C@H]3C[C@H]3COCc3ccc(CC(=O)N4CCC4)cc3F)CC2)nc1` [Example 145, 1-(azetidin-1-yl)-2-(3-fluoro-4-((((1R,2R)-2-(1-(5-(methoxymethyl)pyrimidin-2-yl)piperidin-4-yl)cyclopropyl)methoxy)methyl)phenyl)ethanone] displayed an EC50 of 5.16 nM.

`COCc1cnc(N2CCC([C@H]3C[C@H]3COCc3ccc(CC(=O)N4CCOCC4)cc3F)CC2)nc1` [Example 146, 2-(3-fluoro-4-((((1R,2R)-2-(1-(5-(methoxymethyl)pyrimidin-2-yl)piperidin-4-yl)cyclopropyl)methoxy)methyl)phenyl)-1-morpholinoethanone] returned an EC50 of 3.23 nM.

In turn, `COCc1cnc(N2CCC([C@H]3C[C@H]3COCc3ccc(CC(=O)N(C)C)cc3F)CC2)nc1` [Example 147, 2-(3-fluoro-4-((((1R,2R)-2-(1-(5-(methoxymethyl)pyrimidin-2-yl)piperidin-4-yl)cyclopropyl)methoxy)methyl)phenyl)-N,N-dimethylacetamide] had an EC50 of 2.52 nM.
